biological target: T1, F70Cf (Klebsiella pneumoniae, UniProt C7C422, F70C); assay: Time-course fluorescence measurements of F70Cf on a spectrofluorometer; assay type: binding; settings: F70Cf 0.13 μM, inhibitor 0, 2, 20 and 200 μM, excitation 494 nm, emission 518 nm; L-arginine 200 μM (1:1500) as control, FIGS. 7A-7E
T1 construct: made in house; host or cells: E. coli BL21 (DE3), pET-3k vector; labelled with F5M after purification
Source text: To investigate fluorescence response of the proposed NDM-1 mutant to two existing β-lactam antibiotics, fluorescein-labelled NDM-1 mutant, F70Cf, was mixed with cefotaxime and cephalothin in two concentrations (in mole ratios of 1:150 and 1:1500) and compared the fluorescence intensity level of these two samples with a blank (i.e., no cefotaxime nor cephalothin, or mole ratio=1:0) under a spectrofluorometer. […] It has been shown in other previous studies (Chan et al., 2008; Tsang et al., 2011) that binding of β-lactam antibiotics to the enzyme's active site induces the […] to depart from the active site, so that the fluorescein label (F5M) becomes well exposed to external aqueous environment and/or stays away from amino acid quenchers in the active site. When the […] is hydrolyzed to the acid product, the fluorescein label (F5M) returns to the active site, thus restoring its weak fluorescence signal.
Time-course fluorescence measurements were recorded at 518 nm by exciting the F70Cf (final concentration: 0.13 μM) at 494 nm with different concentrations of the inhibitors (0, 2, 20 and 200 μM, respectively) in labelling buffer (50 μM ZnCl2, 20 mM Tris-HCl buffer, pH 7.0) in a quartz cuvette. Triplicate measurements were performed for each inhibitor. L-arginine in 200 μM was also used as a control.

T1 sequence (C7C422 29-270 F70C): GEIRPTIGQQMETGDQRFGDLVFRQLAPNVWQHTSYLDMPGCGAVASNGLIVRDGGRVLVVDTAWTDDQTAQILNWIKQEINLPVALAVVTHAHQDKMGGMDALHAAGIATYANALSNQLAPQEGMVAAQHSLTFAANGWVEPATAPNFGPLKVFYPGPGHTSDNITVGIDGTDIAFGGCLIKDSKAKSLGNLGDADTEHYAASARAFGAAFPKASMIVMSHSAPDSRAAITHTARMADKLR

| Compound | Fluorescence signal of F70Cf with inhibitor |
| --- | --- |
| O=C(O)CNC(=O)C(CS)Cc1ccccc1 (racemic) [DL-thiorphan] | increased with an increasing dose of the inhibitors |
| N=C(N)NCCC[C@H](N)C(=O)O [L-arginine] | no fluorescence signal |
| peptide with an amino acid sequence of GSKKPVPIIYCNRRTGKCQRM (SEQ ID NO: 9), from GL Biochem [thanatin] | increased with an increasing dose of the inhibitors |

same assay, conditions: spectrofluorometer, mole ratios 1:150 and 1:1500, FIGS. 5A-5B

| Compound | Fluorescence signal of F70Cf with β-lactam antibiotic as a function of time |
| --- | --- |
| CO/N=C(\C(=O)N[C@@H]1C(=O)N2C(C(=O)O)=C(COC(C)=O)CS[C@H]12)c1csc(N)n1 [Cefotaxime, cefotaxime] | fluorescence signals increased and then decreased gradually as a function of time |
| CC(=O)OCC1=C(C(=O)O)N2C(=O)[C@@H](NC(=O)Cc3cccs3)[C@H]2SC1 [cephalothin] | fluorescence signals increased and then decreased gradually as a function of time |

same assay, conditions: spectrophotometer, FIGS. 7A-7D

| Compound | Initial phase of fluorescence increase (speed of binding to F70Cf) |
| --- | --- |
| O=C(O)CNC(=O)C(CS)Cc1ccccc1 (racemic) [DL-thiorphan] | bind much faster to F70Cf as compared L-captopril |
| peptide with an amino acid sequence of GSKKPVPIIYCNRRTGKCQRM (SEQ ID NO: 9), from GL Biochem [thanatin] | bind much faster to F70Cf as compared L-captopril |

biological target: NDM-1 (Klebsiella pneumoniae, UniProt C7C422); assay: not given; settings: previous studies (Brem et al., 2016; Klingler et al., 2015; Ma et al., 2019); cited from earlier work

| Compound | IC50 [µM] |
| --- | --- |
| O=C(O)CNC(=O)C(CS)Cc1ccccc1 (racemic) [DL-thiorphan] | 1.8 |
| peptide with an amino acid sequence of GSKKPVPIIYCNRRTGKCQRM (SEQ ID NO: 9), from GL Biochem [thanatin] | 3.21 |

biological target: T2, Wild-type NDM-1 (Klebsiella pneumoniae, UniProt C7C422); assay: Specific activity against antibiotics by ultraviolet-visible spectroscopy (antibiotic hydrolysis); assay type: biochemical; settings: enzyme 0.001 mg/ml, 100 μM antibiotic, 50 μM ZnCl2, 20 mM Tris-HCl buffer, pH 7.0
T2 construct: made in house; host or cells: E. coli BL21 (DE3), pET-3k vector
T2 sequence (C7C422 29-270 limits assumed): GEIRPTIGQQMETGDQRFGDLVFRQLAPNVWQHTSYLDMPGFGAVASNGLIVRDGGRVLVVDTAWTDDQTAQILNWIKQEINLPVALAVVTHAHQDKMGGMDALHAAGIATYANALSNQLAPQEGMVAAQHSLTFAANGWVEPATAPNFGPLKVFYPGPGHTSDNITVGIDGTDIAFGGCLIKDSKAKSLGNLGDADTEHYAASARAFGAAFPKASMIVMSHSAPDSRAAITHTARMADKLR
Procedure: (§1) Specific activity (U/mg) of wild-type NDM-1, F70C and F70Cf against different antibiotics were measured by ultraviolet-visible spectroscopy. Enzymes (final concentration: 0.001 mg/ml) were incubated with 100 μM of different antibiotics: cefotaxime, ceftazidime, penicillin G, ampicillin and meropenem, in 500 μL buffer (50 μM ZnCl2, 20 mM Tris-HCl buffer, pH 7.0). Antibiotic hydrolysis was monitored at 264 nm (cefotaxime), 260 nm (ceftazidime), 240 nm (penicillin G), 235 nm (ampicillin) and 297 nm (meropenem). The molar extinction coefficients were used as follows: cefotaxime=−7250 M^−1 cm^−1, ceftazidime=−8660 M^−1 cm^−1, penicillin G=−560 M^−1 cm^−1, ampicillin=900 M^−1 cm^−1 and meropenem −10940 M^−1 cm^−1.

| Compound | Specific activity, Wild-type NDM-1 [U/mg] |
| --- | --- |
| CC1(C)S[C@@H]2[C@H](NC(=O)[C@H](N)c3ccccc3)C(=O)N2[C@H]1C(=O)O [Ampicillin, ampicillin] | 16349 ± 880 |
| CO/N=C(\C(=O)N[C@@H]1C(=O)N2C(C(=O)O)=C(COC(C)=O)CS[C@H]12)c1csc(N)n1 [Cefotaxime, cefotaxime] | 8166 ± 937 |
| CC(C)(O/N=C(\C(=O)N[C@@H]1C(=O)N2C(C(=O)[O-])=C(C[n+]3ccccc3)CS[C@H]12)c1csc(N)n1)C(=O)O [Ceftazidime, ceftazidime] | 3446 ± 150 |
| C[C@@H](O)[C@H]1C(=O)N2C(C(=O)O)=C(S[C@@H]3CN[C@H](C(=O)N(C)C)C3)[C@H](C)[C@H]12 [Meropenem, meropenem] | 6834 ± 1582 |
| CC1(C)S[C@@H]2[C@H](NC(=O)Cc3ccccc3)C(=O)N2[C@H]1C(=O)O [Penicillin G, penicillin G] | 54764 ± 3013 |

biological target: T3, F70C (NDM-1 mutant) (Klebsiella pneumoniae, UniProt C7C422, F70C); assay: as above; assay type: biochemical; settings: enzyme 0.001 mg/ml, 100 μM antibiotic, 50 μM ZnCl2, 20 mM Tris-HCl buffer, pH 7.0
T3 construct: made in house; host or cells: E. coli BL21 (DE3), pET-3k vector
T3 sequence (C7C422 29-270 F70C): as the sequence (C7C422 29-270 F70C) above
Procedure: as §1

| Compound | Specific activity, F70C [U/mg] |
| --- | --- |
| CC1(C)S[C@@H]2[C@H](NC(=O)[C@H](N)c3ccccc3)C(=O)N2[C@H]1C(=O)O [Ampicillin, ampicillin] | 13880 ± 1406 |
| CO/N=C(\C(=O)N[C@@H]1C(=O)N2C(C(=O)O)=C(COC(C)=O)CS[C@H]12)c1csc(N)n1 [Cefotaxime, cefotaxime] | 8195 ± 1960 |
| CC(C)(O/N=C(\C(=O)N[C@@H]1C(=O)N2C(C(=O)[O-])=C(C[n+]3ccccc3)CS[C@H]12)c1csc(N)n1)C(=O)O [Ceftazidime, ceftazidime] | 3835 ± 216 |
| C[C@@H](O)[C@H]1C(=O)N2C(C(=O)O)=C(S[C@@H]3CN[C@H](C(=O)N(C)C)C3)[C@H](C)[C@H]12 [Meropenem, meropenem] | 5863 ± 291 |
| CC1(C)S[C@@H]2[C@H](NC(=O)Cc3ccccc3)C(=O)N2[C@H]1C(=O)O [Penicillin G, penicillin G] | 60854 ± 1436 |

biological target: T4, F70Cf (fluorescein-labelled NDM-1 mutant) (Klebsiella pneumoniae, UniProt C7C422, F70C); assay: as above; assay type: biochemical; settings: enzyme 0.001 mg/ml, 100 μM antibiotic, 50 μM ZnCl2, 20 mM Tris-HCl buffer, pH 7.0
T4 construct: made in house; host or cells: E. coli BL21 (DE3), pET-3k vector; labelled with F5M after purification
T4 sequence (C7C422 29-270 F70C): as above
Procedure: as §1

| Compound | Specific activity, F70Cf [U/mg] |
| --- | --- |
| CC1(C)S[C@@H]2[C@H](NC(=O)[C@H](N)c3ccccc3)C(=O)N2[C@H]1C(=O)O [Ampicillin, ampicillin] | 779 ± 114 |
| CO/N=C(\C(=O)N[C@@H]1C(=O)N2C(C(=O)O)=C(COC(C)=O)CS[C@H]12)c1csc(N)n1 [Cefotaxime, cefotaxime] | 1529 ± 121 |
| CC(C)(O/N=C(\C(=O)N[C@@H]1C(=O)N2C(C(=O)[O-])=C(C[n+]3ccccc3)CS[C@H]12)c1csc(N)n1)C(=O)O [Ceftazidime, ceftazidime] | 308 ± 33 |
| C[C@@H](O)[C@H]1C(=O)N2C(C(=O)O)=C(S[C@@H]3CN[C@H](C(=O)N(C)C)C3)[C@H](C)[C@H]12 [Meropenem, meropenem] | 506 ± 30 |
| CC1(C)S[C@@H]2[C@H](NC(=O)Cc3ccccc3)C(=O)N2[C@H]1C(=O)O [Penicillin G, penicillin G] | 10720 ± 330 |

biological target: T1, F70Cf; assay: Fluorescence microplate reader measurements of F70Cf; assay type: binding; settings: mole ratio 1:1500, FIGS. 8A-8D
Procedure: To investigate compatibility of F70Cf with a high-throughput screening platform, a F70Cf was initially added to a fluorescence microplate reader followed by injection of 1:1500 cefotaxime and cephalothin, respectively.
For high-throughput inhibitor screening experiments, the fluorescence signal changes were recorded by adding 10 μL of each inhibitor (final concentration: 200 μM) automatically into 250 μL of F70Cf (final concentration: 0.13 μM) in a 96-well plate containing 50 μM ZnCl2, 20 mM, pH7.0, Tris-HCl buffer, using Thermo Scientific Varioskan LUX Multimode Microplate Reader (Thermo Fisher Scientific) (n=3). The excitation and emission wavelengths were 494 and 520 nm, respectively. The injection of each inhibitor started at 0.5 min.

| Compound | Initial increase in fluorescence signal, microplate reader |
| --- | --- |
| O=C(O)CNC(=O)C(CS)Cc1ccccc1 (racemic) [DL-thiorphan] | much faster than that of L-captopril |
| peptide with an amino acid sequence of GSKKPVPIIYCNRRTGKCQRM (SEQ ID NO: 9), from GL Biochem [thanatin] | much faster than that of L-captopril |

same assay, conditions: mole ratio of F70Cf to test substance 1:1500, FIGS. 6A-6B, 8E

| Compound | Fluorescence signal of F70Cf as a function of time, microplate reader |
| --- | --- |
| CO/N=C(\C(=O)N[C@@H]1C(=O)N2C(C(=O)O)=C(COC(C)=O)CS[C@H]12)c1csc(N)n1 [Cefotaxime, cefotaxime] | stronger fluorescence signals and then declining fluorescence signals as a function of time |
| N=C(N)NCCC[C@H](N)C(=O)O [L-arginine] | no fluorescence signals |
| CC(=O)OCC1=C(C(=O)O)N2C(=O)[C@@H](NC(=O)Cc3cccs3)[C@H]2SC1 [cephalothin] | stronger fluorescence signals and then declining fluorescence signals as a function of time |

biological target: T1, F70Cf; assay: Native ESI-MS binding study of F70Cf with inhibitors; settings: 20 mM ammonium acetate with 50 μM ZnCl2, FIGS. 9A-9F
Procedure: To further verify that F70Cf can bind to these non-β-lactam inhibitors non-covalently, native ESI-MS measurements were performed. […] Prior to ESI-MS analysis, protein was buffer-exchanged into 20 mM ammonium acetate with 50 μM ZnCl2 buffer with ultra-filtration devices. Equal volumes of F70Cf and inhibitors were mixed in a molar ratio of 1:20 for 10 minutes, and the mixture was directly loaded into metal-coated glass capillaries, which were subsequently mounted onto the nano-ESI source for MS analysis […].

| Compound | Formation of non-covalent complex with F70Cf |
| --- | --- |
| O=C(O)CNC(=O)C(CS)Cc1ccccc1 (racemic) [DL-thiorphan] | can form non-covalent complexes with F70Cf in a significant population |
| N=C(N)NCCC[C@H](N)C(=O)O [L-arginine] | virtually cannot form a F70Cf-L-arginine complex in a significant population |
| peptide with an amino acid sequence of GSKKPVPIIYCNRRTGKCQRM (SEQ ID NO: 9), from GL Biochem [thanatin] | can form non-covalent complexes with F70Cf in a significant population |

— patent US20260265724A1, “BIOSENSOR COMPRISING A MODIFIED BETA-LACTAMASE AND USES THEREOF” (priority 2022, published 2026)
